Consider 10 compounds from DBAASP.

Usually MIC stands for the least concentration at which growth counts as inhibited. A lower MIC goes with greater potency.

Some test systems named below: Escherichia coli UB1005; Escherichia coli K88; Candida albicans; Escherichia coli; Listeria innocua; Micrococcus luteus A270; Bacillus cereus; Leuconostoc lactis; Streptococcus uberis; Micrococcus luteus; Enterococcus faecalis; Staphylococcus aureus; Pasteurella multocida.
Common to all, as to test: ≥ marks a high value that may be exact or a test limit, other limits are often not marked, values filed in µg/mL are converted to µM
The test system of assay [1] is Staphylococcus aureus ATCC 33591.
For assay [2], the system named is Staphylococcus epidermidis ATCC 35984.
Assay [3] deals with Pseudomonas aeruginosa ATCC 27853.
For assay [4], the system named is Staphylococcus aureus ATCC 25923.
In assay [5] the test system is Staphylococcus epidermidis ATCC 12228.
Assay [6] concerns Salmonella enterica subsp. enterica serovar Typhimurium ATCC 14028.
The test system of assay [7] is Escherichia coli CVCC 1515.
The subject of assay [8] is Staphylococcus aureus ATCC 700699.
In assay [9] the test system is Klebsiella pneumoniae ATCC 700603.
Assay [10] deals with Staphylococcus aureus ATCC 29213.
In assay [11] the test system is Escherichia coli ATCC 25922.
For assay [12], the system named is Pseudomonas aeruginosa H103.
Assay [13] concerns Enterococcus faecalis ATCC 29212.
The subject of assay [14] is Salmonella enterica serovar Typhimurium.
Assay [15] relates to Staphylococcus epidermidis.
In assay [16] the test system is Bacillus subtilis ATCC 23857.
For assay [17], the system named is Staphylococcus aureus USA 300.
The subject of assay [18] is Staphylococcus aureus ATCC 6538.
Assay [19] concerns Pseudomonas aeruginosa ATCC 15442.

In brackets after ≈: the same amount, converted by molar mass. Bounds are passed on as bounds.

With `CC(C)C[C@H](NC(=O)[C@@H](N)Cc1ccccc1)C(=O)N[C@@H](CCCCN)C(=O)N[C@@H](CCCCN)C(=O)N[C@@H](C)C(=O)N[C@@H](CCCCN)C(=O)N[C@@H](CCCCN)C(=O)N[C@@H](Cc1ccccc1)C(=O)NCC(=O)N[C@@H](CCCCN)C(=O)N[C@@H](C)C(=O)N[C@@H](Cc1ccccc1)C(N)=O` [FLKKAKKFGKAF], the MIC in assay [1] was at least 362 µM; in [2] it was at least 181 µM; in assay [3], 45.3 µM (≈ 64 µg/mL); in assay [4], over 362 µM.
`CC(C)C[C@H](NC(=O)[C@H](CCCCN)NC(=O)[C@H](C)NC(=O)[C@H](C)NC(=O)[C@H](C)NC(=O)[C@H](CCCCN)NC(=O)[C@H](C)NC(=O)[C@H](C)NC(=O)[C@H](C)NC(=O)[C@H](CCCCN)NC(=O)[C@H](CC(C)C)NC(=O)[C@@H](N)Cc1c[nH]c2ccccc12)C(=O)N[C@@H](Cc1c[nH]c2ccccc12)C(N)=O` [WLKAAAKAAAKLW]: the minimal inhibitory concentration (MIC) turned out to be 8 µM (≈ 11.4 µg/mL) in [5]; 8 µM (≈ 11.4 µg/mL) in assay [6]; 16 µM (≈ 22.8 µg/mL) in assay [3]; 4 µM (≈ 5.71 µg/mL) against Escherichia coli UB1005; 4 µM (≈ 5.71 µg/mL) in assay [7]; 2 µM (≈ 2.85 µg/mL) against Escherichia coli K88.
Regarding `CC(C)C[C@H](NC(=O)[C@H](Cc1c[nH]c2ccccc12)NC(=O)[C@H](CCCCN)NC(=O)[C@H](C)NC(=O)[C@H](C)NC(=O)[C@H](C)NC(=O)[C@H](CCCCN)NC(=O)[C@H](C)NC(=O)[C@H](C)NC(=O)[C@H](C)NC(=O)[C@H](CCCCN)NC(=O)[C@H](Cc1c[nH]c2ccccc12)NC(=O)[C@@H](N)CC(C)C)C(N)=O` [LWKAAAKAAAKWL], the MIC in assay [5] is 16 µM (≈ 22.8 µg/mL); in assay [6] it was 64 µM (≈ 91.3 µg/mL); in [3], 16 µM (≈ 22.8 µg/mL); in the assay with Escherichia coli UB1005, 8 µM (≈ 11.4 µg/mL); in assay [7], 8 µM (≈ 11.4 µg/mL); in the assay with Escherichia coli K88 it was 4 µM (≈ 5.71 µg/mL).
As for `CC[C@H](C)[C@H](NC(=O)[C@H](CC(=O)O)NC(=O)[C@H](CCCCN)NC(=O)[C@H](C)NC(=O)[C@H](C)NC(=O)[C@H](C)NC(=O)[C@H](CCCCN)NC(=O)[C@H](CC(C)C)NC(=O)[C@@H](NC(=O)[C@H](CC(=O)O)NC(=O)[C@@H](NC(=O)[C@@H](NC(=O)CN)C(C)C)C(C)C)[C@@H](C)CC)C(=O)N[C@@H](C)C(=O)NCC(=O)N[C@@H](Cc1cnc[nH]1)C(=O)N[C@@H](CC(C)C)C(=O)N[C@@H](C)C(=O)N[C@@H](CO)C(=O)N[C@@H](CCCCN)C(=O)N[C@H](C(=O)N[C@@H](CCSC)C(=O)N[C@@H](CC(N)=O)C(=O)N[C@@H](CCCCN)C(=O)N[C@@H](CC(C)C)C(N)=O)C(C)C` [GVVDILKAAAKDIAGHLASKVMNKL], the MIC in assay [8] was at least 100 µM; in assay [9], 50 µM (≈ 128 µg/mL); in [1] it was at least 100 µM; in [10], over 100 µM; in assay [3], 100 µM (≈ 256 µg/mL); in assay [11] it was 25 µM (≈ 64.1 µg/mL).
For the compound `CC(C)C[C@H](NC(=O)[C@@H](N)CCCN=C(N)N)C(=O)N[C@@H](Cc1c[nH]c2ccccc12)C(=O)N[C@@H](Cc1c[nH]c2ccccc12)C(=O)N[C@@H](Cc1c[nH]c2ccccc12)C(=O)N[C@@H](Cc1c[nH]c2ccccc12)C(=O)N[C@@H](CCCN=C(N)N)C(=O)N[C@@H](CCCN=C(N)N)C(=O)N[C@@H](CCCCN)C(=O)O` [RLWWWWRRK], the MIC in [12] was 16.6 µM (≈ 24.4 µg/mL); in assay [13] it was 4.1 µM (≈ 6.04 µg/mL); in assay [14], 8.3 µM (≈ 12.2 µg/mL); in assay [15], 0.5 µM (≈ 0.736 µg/mL); in [4], 2.1 µM (≈ 3.09 µg/mL); with Candida albicans, 4.1 µM (≈ 6.04 µg/mL). Also, the MIC with Escherichia coli UB1005 was found to be 4.1 µM (≈ 6.04 µg/mL).
Take `CC[C@H](C)[C@H](NC(=O)CNC(=O)[C@@H](N)CCSC)C(=O)N[C@H](C(=O)N[C@@H](C)C(=O)NCC(=O)N[C@H](C(=O)N[C@H](C(=O)N[C@@H](CCCCN)C(=O)N[C@H](C(=O)N[C@H](C(=O)N[C@@H](CCCCN)C(=O)N[C@@H](CO)C(=O)N[C@@H](CC(C)C)C(=O)N[C@H](C(=O)N[C@@H](CCC(=O)O)C(=O)N[C@@H](CCC(N)=O)C(=O)N[C@@H](Cc1ccccc1)C(=O)N[C@H](C(=O)NCC(=O)N[C@@H](CCCCN)C(=O)O)[C@@H](C)O)[C@@H](C)CC)[C@@H](C)CC)C(C)C)[C@@H](C)CC)[C@@H](C)CC)[C@@H](C)CC` [MGIIAGIIKVIKSLIEQFTGK]: the MIC in assay [2] was at least 64 µM; in [11] it was over 128 µM; in assay [16] it was at least 128 µM; in assay [17] it was at least 64 µM.
As to `CC(C)C[C@H](NC(=O)[C@H](C)NC(=O)[C@H](Cc1cnc[nH]1)NC(=O)[C@H](Cc1cnc[nH]1)NC(=O)CNC(=O)[C@H](CC(C)C)NC(=O)[C@@H](N)Cc1cnc[nH]1)C(=O)N[C@@H](CC(=O)O)C(=O)N[C@@H](Cc1cnc[nH]1)C(=O)N[C@@H](CC(C)C)C(=O)N[C@@H](CC(C)C)C(=O)N[C@@H](CCCCN)C(=O)O` [HLGHHALDHLLK], the MIC in [18] is 8990 µM (≈ 12500 µg/mL); in assay [13], over 8990 µM; in [10] it was over 8990 µM; in [19], at least 8990 µM; in assay [2], at least 8990 µM; in assay [4], 8990 µM (≈ 12500 µg/mL).
`CC(C)C[C@H](NC(=O)[C@H](CO)NC(=O)[C@H](Cc1cnc[nH]1)NC(=O)[C@H](CO)NC(=O)[C@H](CC(C)C)NC(=O)[C@H](CC(C)C)NC(=O)[C@@H](N)CCCCN)C(=O)O` [KLLSHSL]: the MIC is 78.4 µM (≈ 62.5 µg/mL) in the assay on Escherichia coli, at least 39.2 µM against Listeria innocua and at least 39.2 µM with Micrococcus luteus A270.
For `CC[C@H](C)[C@H](NC(=O)[C@H](C)NC(=O)[C@H](CCC(=O)O)NC(=O)[C@H](Cc1cnc[nH]1)NC(=O)[C@@H](N)Cc1ccccc1)C(=O)N[C@@H](C)C(=O)N1CCC[C@H]1C(=O)N[C@H](C(=O)N[C@H](C(=O)N[C@@H](Cc1cnc[nH]1)C(=O)N[C@@H](C)C(=O)N[C@@H](C)C(=O)N[C@H](C(=O)N[C@@H](CCCCN)C(=O)N[C@@H](C)C(=O)N[C@@H](CC(C)C)C(=O)N[C@H](C(=O)NCC(=O)N[C@@H](Cc1ccccc1)C(=O)N[C@@H](CC(C)C)C(=O)NCC(N)=O)C(C)C)C(C)C)C(C)C)C(C)C` [FHEAIAPVVHAAVKALVGFLG], the MIC in the assay with Bacillus cereus was at least 46.6 µM; with Leuconostoc lactis, 23.3 µM (≈ 50 µg/mL); against Streptococcus uberis, at least 46.6 µM; with Micrococcus luteus, at least 46.6 µM; in the assay on Enterococcus faecalis, at least 46.6 µM; with Staphylococcus aureus, over 46.6 µM. In addition, the minimal inhibitory concentration (MIC) in [15] is at least 46.6 µM; against Pasteurella multocida, at least 46.6 µM; against Escherichia coli, over 46.6 µM; in the assay with Listeria innocua, at least 46.6 µM.
Consider `CC[C@H](C)[C@H](NC(=O)[C@@H](N)CCCN=C(N)N)C(=O)N[C@@H](CCCN=C(N)N)C(=O)N[C@@H](CCCN=C(N)N)C(=O)N[C@@H](Cc1c[nH]c2ccccc12)C(=O)N[C@@H](CCCCN)C(=O)N[C@@H](Cc1ccccc1)C(=O)N[C@@H](CCCN=C(N)N)C(=O)N[C@@H](Cc1c[nH]c2ccccc12)C(=O)O` [RIRRWKFRW], for which the MIC in [12] is at least 42.6 µM; in assay [13], 5.3 µM (≈ 7.44 µg/mL); in assay [14] it was 5.3 µM (≈ 7.44 µg/mL); in assay [15], 1.3 µM (≈ 1.82 µg/mL); in assay [4], 1.3 µM (≈ 1.82 µg/mL); in the assay with Candida albicans it was 21.3 µM (≈ 29.9 µg/mL). In the assay on Escherichia coli UB1005, the MIC worked out at 5.3 µM (≈ 7.44 µg/mL).
